# Test results as given in patent US20090004145A1, “COMPOSITIONS AND METHODS INVOLVING GENE THERAPY AND PROTEASOME MODULATION” (priority 2006, published 2009).
# Where a SMILES comes first, the peptide text is derived from it. The star is where a group is joined. Cbz = O=C(OCc1ccccc1)*
# Key:
# Format in all cases: cell-based, human
# [1] = system: proteasome activity in 2008 cells; assay: Proteasome activity assay (commercially available kit) on cell lysates; settings: 48 h
# Procedure: (§1) FIG. 11. Inhibition of the proteasomal activity by MG132 results in increased ubiquitinated MDA-7 protein expression in CDDP-sensitive tumor cells but not in CDDP-resistant tumor cells. FIG. 11A, CDDP-resistant (2008/C*13 R) and sensitive (2008) ovarian tumor cells were plated in six-well plates and were treated with PBS, MG132, Ad-mda7, or Ad-mda7 plus MG132. At 48 h after treatment cells were harvested, lysates and supernatants prepared and subjected to MDA-7 and total ubiquitinated protein detection by western blotting and proteasome activity assay using commercially available kit. […] However, the MDA-7 protein was increased in 2008 cells when treated with MG132 plus Ad-mda7. […] FIG. 11B, CDDP-resistant (2008/C*13 R) and sensitive (2008) ovarian tumor cells were plated in six-well plates and were treated with PBS, MG132, Ad-p53, or Ad-p53 plus MG132. At 48 h after treatment cells were harvested, lysates and supernatants prepared and subjected to p53 protein detection by western blotting and proteasome activity using commercially available kit. […] However, the p53 protein was increased in 2008 cells when treated with MG132 plus Ad-p53.
# FIG. 20. SiRNA-mediated inhibition of Beta-5 subunit expression of the 20S proteasome in CDDP-sensitive tumor cells abrogates proteasome activity. CDDP-sensitive (2008) ovarian tumor cells were plated in six-well plates. […]
# [2] = system: proteasome activity in 2008/C*13 R cells; assay: as above; settings: 48 h
# [3] = system: total ubiquitinated proteins in 2008 cells; assay: Western blotting of total ubiquitinated proteins; settings: 24 h
# Procedure: (§2) FIG. 9. CDDP-resistant tumor cells have more endogenous ubiquitinated proteins. CDDP-resistant (2008/C*13 R) and sensitive (2008) ovarian tumor cells were plated in six-well plates and were untreated or treated with MG132. Cells were harvested 24 h after treatment, total cell lysate prepared and subjected to western blotting. Membrane was probed with human anti-ubiquitinated antibody.
# as §2, with “CDDP-Resistant Tumor Cells Have More Endogenous Ubiquitinated Proteins.” for “FIG. 9. CDDP-resistant tumor cells have more endogenous ubiquitinated proteins.”, “antibody. […] (FIG. 9)” for “antibody.”
# [4] = system: MDA-7 protein in 2008 cells; assay: Western blotting of MDA-7 protein expression; settings: 48 h, vs Ad-mda7 alone
# Procedure: as §1
# FIG. 18. […] CDDP-sensitive (2008) ovarian tumor cells were plated in six-well plates. […]
# FIG. 21. […] MDA-7 protein was detected in cells that were treated with Ad-mda7. […]
structure (smiles),measurement,setting,value
CC(C)C[C@@H](C=O)NC(=O)[C@H](CC(C)C)NC(=O)[C@H](CC(C)C)NC(=O)OCc1ccccc1 [MG132] (Cbz-Leu-Leu-Leu-aldehyde),inhibition of proteasome activity,[1]; FIG. 11A (Ad-mda7 experiment),60-65%
same,inhibition of proteasome activity,[1]; FIG. 11B (Ad-p53 experiment),60-65%
same,inhibition of proteasome activity,[2]; FIG. 11A (Ad-mda7 experiment),20%
same,inhibition of proteasome activity,[2]; FIG. 11B (Ad-p53 experiment),20%
same,total ubiquitinated protein levels,[3],greatly increased
same,MDA-7 protein expression with proteasome inhibitor,[4],significantly increased
